Reference: the supplement of paper PMC10307832

Legend:
Experiment in all cases: relative viability (nuclei count vs DMSO), 5 days (fraction); higher = more cells survive
[1] = compound: Cn1c(=O)n(-c2ccc(C(C)(C)C#N)cc2)c2c3cc(-c4cnc5ccccc5c4)ccc3ncc21 [Dactolisib] + CC1(C)CCC(c2ccc(Cl)cc2)=C(CN2CCN(c3ccc(C(=O)NS(=O)(=O)c4ccc(N[C@H](CCN5CCOCC5)CSc5ccccc5)c(S(=O)(=O)C(F)(F)F)c4)cc3)CC2)C1 [Navitoclax] (partner 0.5 µM)
Summary of the method: (§1)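 Nuclei were stained with Hoechst during a one-step fixation (final 0.05% Triton X-100, 1% formaldehyde, 1 ug/ml Hoechst) carried out 5 days after dosing, then counted on 4× images. The cells, lung cancer lines in 1536-well plates, had been dosed by pin tool the day after seeding with one drug alone or a fixed anchor-drug dose plus five library-drug doses (not always all listed) in √10 steps. Relative viability is the nuclei count in treated wells divided by that in vehicle wells, and each value is the median of duplicate plates.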

[2] = compound: C1CCC(CC1)N(CCNCCC2=C3C(=C(C=C2)O)NC(=O)CO3)C(=O)CCNCCC4=CC(=C(C=C4)Cl)Cl [AZ505] + CC(C)C[C@H](NC(=O)[C@H](Cc1ccccc1)NC(=O)c1cnccn1)B(O)O [Bortezomib] (partner 0.002 µM)
Summary of the method: as §1

[3] = compound: Cn1c(=O)n(-c2ccc(C(C)(C)C#N)cc2)c2c3cc(-c4cnc5ccccc5c4)ccc3ncc21 [Dactolisib] + Cc1cc(Nc2cc(N3CCN(C)CC3)nc(Sc3ccc(NC(=O)C4CC4)cc3)n2)n[nH]1 [Tozasertib] (partner 0.1 µM)
Summary of the method: as §1

[4] = compound: C1CCC(CC1)N(CCNCCC2=C3C(=C(C=C2)O)NC(=O)CO3)C(=O)CCNCCC4=CC(=C(C=C4)Cl)Cl [AZ505] + CC(=O)Nc1cccc(-n2c(=O)n(C3CC3)c(=O)c3c(Nc4ccc(I)cc4F)n(C)c(=O)c(C)c32)c1 [Trametinib] (partner 0.02 µM)
Summary of the method: as §1

UMC-11
relative viability ([1]; first compound 0.002 µM): 0.339 | relative viability ([1]; first compound 0.006325 µM): 0.286 | relative viability ([1]; first compound 0.02 µM): 0.243 | relative viability ([1]; first compound 0.06325 µM): 0.131 | relative viability ([1]; first compound 0.2 µM): 0.124 | relative viability ([2]; first compound 0.08 µM): 0.661 | relative viability ([2]; first compound 0.253 µM): 0.872 | relative viability ([2]; first compound 0.8 µM): 0.68 | relative viability ([2]; first compound 2.53 µM): 0.734 | relative viability ([2]; first compound 8 µM): 0.939 | relative viability ([3]; first compound 0.002 µM): 0.214 | relative viability ([3]; first compound 0.006325 µM): 0.198 | relative viability ([3]; first compound 0.02 µM): 0.216 | relative viability ([3]; first compound 0.06325 µM): 0.221 | relative viability ([3]; first compound 0.2 µM): 0.23 | relative viability ([4]; first compound 0.08 µM): 0.588 | relative viability ([4]; first compound 0.253 µM): 0.643 | relative viability ([4]; first compound 0.8 µM): 0.697 | relative viability ([4]; first compound 2.53 µM): 0.789 | relative viability ([4]; first compound 8 µM): 0.672
